Data published in patent US9700516B2, “Compositions and methods for reducing overdose” (priority 2014, dated 2017).

Assay: Effect of alkalinizing agents on the pH of a solution of 0.1 N HCl with a starting pH of 2.0
Format: physicochemical
Procedure: Various alkalinizing agents were added to a solution of 0.1 N HCl with a starting pH of 2.0 and the pH of the solution was tested at different time points.

**Q.** Which pH (100 mg in 200 ml, 10 min) does the source give for Cl.N=C(N)NCCC[C@H](N)C(=O)O [Arginine HCl, L-arginine-HCl] here?
**A.** Its pH is 2.20.

**Q.** What about the pH (100 mg in 200 ml, 20 min) of the same molecule?
**A.** Its pH is 2.20.

**Q.** And the pH (100 mg in 200 ml, 30 min)?
**A.** The pH was 2.20.

**Q.** What about the pH (100 mg in 200 ml, 40 min) of the same molecule?
**A.** Its pH is 2.20.

**Q.** And the pH (100 mg in 200 ml, 50 min)?
**A.** Its pH is 2.20.

**Q.** What about the pH (100 mg in 200 ml, 60 min) of the same molecule?
**A.** Its pH is 2.20.

**Q.** For O=C([O-])[O-].[Mg+2] [Magnesium Carbonate, magnesium carbonate], which pH (80 mg in 200 ml, 0 min) is on record?
**A.** Its pH is 2.73.

**Q.** What about the pH (80 mg in 200 ml, 1 min) of the same molecule?
**A.** Its pH is 4.78.

**Q.** And the pH (80 mg in 200 ml, 2 min)?
**A.** The pH was 6.09.

**Q.** And the pH (80 mg in 200 ml, 3 min)?
**A.** Its pH is 6.57.

**Q.** What about the pH (80 mg in 200 ml, 4 min) of the same molecule?
**A.** Its pH is 7.44.

**Q.** And the pH (80 mg in 200 ml, 5 min)?
**A.** Its pH is 8.64.

**Q.** What about the pH (80 mg in 200 ml, 6 min) of the same molecule?
**A.** The pH was 8.92.

**Q.** What about the pH (80 mg in 200 ml, 7 min) of the same molecule?
**A.** Its pH is 9.03.

**Q.** What about the pH (80 mg in 200 ml, 8 min) of the same molecule?
**A.** The pH was 9.09.

**Q.** What about the pH (80 mg in 200 ml, 9 min) of the same molecule?
**A.** Its pH is 9.13.

**Q.** What about the pH (80 mg in 200 ml, 10 min) of the same molecule?
**A.** Its pH is 9.17.

**Q.** What about the pH (80 mg in 200 ml, 20 min) of the same molecule?
**A.** Its pH is 9.26.

**Q.** What about the pH (80 mg in 200 ml, 30 min) of the same molecule?
**A.** The pH was 9.26.

**Q.** And the “pH of the solution” value (80 mg in 200 ml, 30 minute timecourse)?
**A.** Its value is “above 9”.

**Q.** What about the pH (100 mg in 200 ml, 10 min) of the same molecule?
**A.** Its pH is 3.05.

**Q.** And the pH (100 mg in 200 ml, 20 min)?
**A.** The pH was 3.05.

**Q.** What about the pH (100 mg in 200 ml, 30 min) of the same molecule?
**A.** Its pH is 3.05.

**Q.** What about the pH (100 mg in 200 ml, 40 min) of the same molecule?
**A.** Its pH is 3.05.

**Q.** And the pH (100 mg in 200 ml, 50 min)?
**A.** The pH was 3.05.

**Q.** And the pH (100 mg in 200 ml, 60 min)?
**A.** The pH was 3.05.

**Q.** Which pH (120 mg in 200 ml, 10 min) does the source give for CNC[C@H](O)[C@@H](O)[C@H](O)[C@H](O)CO [Meglumine, meglumine] here?
**A.** Its pH is 2.16.

**Q.** What about the pH (120 mg in 200 ml, 20 min) of the same molecule?
**A.** Its pH is 2.16.

**Q.** And the pH (120 mg in 200 ml, 30 min)?
**A.** Its pH is 2.16.

**Q.** What about the pH (120 mg in 200 ml, 40 min) of the same molecule?
**A.** Its pH is 2.16.

**Q.** What about the pH (120 mg in 200 ml, 50 min) of the same molecule?
**A.** Its pH is 2.16.

**Q.** What about the pH (120 mg in 200 ml, 60 min) of the same molecule?
**A.** The pH was 2.16.

**Q.** What does the source list for [O]=[Mg] [MgO, magnesium oxide]?
**A.** pH (40 mg per 320 mL, 0 min): 2.01; pH (40 mg per 320 mL, 1 min): 2.01; pH (40 mg per 320 mL, 2 min): 2.03; pH (40 mg per 320 mL, 3 min): 2.08; pH (40 mg per 320 mL, 4 min): 2.10; pH (40 mg per 320 mL, 5 min): 2.13; pH (40 mg per 320 mL, 6 min): 2.16; pH (40 mg per 320 mL, 7 min): 2.19; pH (40 mg per 320 mL, 8 min): 2.22; pH (40 mg per 320 mL, 9 min): 2.23; pH (40 mg per 320 mL, 10 min): 2.24; pH (40 mg per 320 mL, 20 min): 2.30; pH (40 mg per 320 mL, 30 min): 2.33; pH (40 mg per 320 mL, 40 min): 2.39; pH (40 mg per 320 mL, 50 min): 2.34; pH (40 mg per 320 mL, 60 min): 2.34; pH (80 mg per 320 mL, 0 min): 1.99; pH (80 mg per 320 mL, 1 min): 2.00; pH (80 mg per 320 mL, 2 min): 2.02; pH (80 mg per 320 mL, 3 min): 2.05; pH (80 mg per 320 mL, 4 min): 2.06; pH (80 mg per 320 mL, 5 min): 2.08; pH (80 mg per 320 mL, 6 min): 2.10; pH (80 mg per 320 mL, 7 min): 2.12; pH (80 mg per 320 mL, 8 min): 2.13; pH (80 mg per 320 mL, 9 min): 2.15; pH (80 mg per 320 mL, 10 min): 2.17; pH (80 mg per 320 mL, 20 min): 2.30; pH (80 mg per 320 mL, 30 min): 2.40; pH (80 mg per 320 mL, 40 min): 2.48; pH (80 mg per 320 mL, 50 min): 2.55; pH (80 mg per 320 mL, 60 min): 2.63; pH (80 mg powder/200 ml, 4 min): 6.21; pH (80 mg powder/200 ml, 5 min): 6.67; pH (80 mg powder/200 ml, 6 min): 7.22; pH (80 mg powder/200 ml, 7 min): 7.98; pH (80 mg powder/200 ml, 8 min): 8.42; pH (80 mg powder/200 ml, 9 min): 8.44; pH (80 mg powder/200 ml, 10 min): 10.13; pH (80 mg powder/200 ml, 20 min): 10.13; pH (80 mg powder/200 ml, 30 min): 8.66; pH (80 mg powder/200 ml, 40 min): 10.13; pH (80 mg, Granular/200 ml, 4 min): 2.75; pH (80 mg, Granular/200 ml, 5 min): 3.37; pH (80 mg, Granular/200 ml, 6 min): 5.50; pH (80 mg, Granular/200 ml, 7 min): 6.04; pH (80 mg, Granular/200 ml, 8 min): 6.38; pH (80 mg, Granular/200 ml, 9 min): 6.74; pH (80 mg, Granular/200 ml, 10 min): 7.05; pH (80 mg, Granular/200 ml, 20 min): 7.50; pH (80 mg, Granular/200 ml, 30 min): 9.14; pH (100 mg powder/200 ml, 4 min): 2.37; pH (100 mg powder/200 ml, 5 min): 2.37; pH (100 mg powder/200 ml, 6 min): 3.52; pH (100 mg powder/200 ml, 7 min): 3.52; pH (100 mg powder/200 ml, 8 min): 3.52; pH (100 mg powder/200 ml, 9 min): 3.52; pH (100 mg powder/200 ml, 10 min): 3.52; pH (100 mg powder/200 ml, 20 min): 5.00; pH (100 mg powder/200 ml, 30 min): 6.50; pH (100 mg powder/200 ml, 40 min): 8.09; pH (120 mg powder/200 ml, 4 min): 6.97; pH (120 mg powder/200 ml, 5 min): 8.21; pH (120 mg powder/200 ml, 6 min): 8.21; pH (120 mg powder/200 ml, 7 min): 8.21; pH (120 mg powder/200 ml, 8 min): 8.21; pH (120 mg powder/200 ml, 9 min): 8.21; pH (120 mg powder/200 ml, 10 min): 8.21; pH (120 mg powder/200 ml, 20 min): 8.21; pH (120 mg powder/200 ml, 30 min): 8.21; pH (160 mg per 320 mL, 0 min): 1.99; pH (160 mg per 320 mL, 1 min): 2.05; pH (160 mg per 320 mL, 2 min): 2.14; pH (160 mg per 320 mL, 3 min): 2.24; pH (160 mg per 320 mL, 4 min): 2.35; pH (160 mg per 320 mL, 5 min): 2.47; pH (160 mg per 320 mL, 6 min): 2.60; pH (160 mg per 320 mL, 7 min): 2.71; pH (160 mg per 320 mL, 8 min): 2.83; pH (160 mg per 320 mL, 9 min): 2.95; pH (160 mg per 320 mL, 10 min): 3.07; pH (160 mg per 320 mL, 20 min): 8.16; pH (160 mg per 320 mL, 30 min): 9.30; pH (160 mg per 320 mL, 40 min): 9.54; pH (160 mg per 500 mL, 0 min): 1.98; pH (160 mg per 500 mL, 1 min): 2.00; pH (160 mg per 500 mL, 2 min): 2.02; pH (160 mg per 500 mL, 3 min): 2.05; pH (160 mg per 500 mL, 4 min): 2.07; pH (160 mg per 500 mL, 5 min): 2.12; pH (160 mg per 500 mL, 6 min): 2.15; pH (160 mg per 500 mL, 7 min): 2.18; pH (160 mg per 500 mL, 8 min): 2.22; pH (160 mg per 500 mL, 9 min): 2.24; pH (160 mg per 500 mL, 10 min): 2.27; pH (160 mg per 500 mL, 20 min): 2.54; pH (160 mg per 500 mL, 30 min): 2.62; pH (160 mg per 500 mL, 40 min): 2.74; pH (160 mg per 500 mL, 50 min): 2.86; pH (160 mg per 500 mL, 60 min): 2.96; effect on pH of the solution (80-120 mg/200 ml powder and 80 mg granular/200 ml): rapidly raise the pH of the solution to neutral or higher

**Q.** What does the source list for CC(=O)[O-].[Na+] [Sodium Acetate, sodium acetate]?
**A.** pH (200 mg in 200 ml, 10 min): 4.73; pH (200 mg in 200 ml, 20 min): 4.96; pH (200 mg in 200 ml, 30 min): 5.08; pH (200 mg in 200 ml, 40 min): 5.21; pH (200 mg in 200 ml, 50 min): 5.34; pH (200 mg in 200 ml, 60 min): 5.34

**Q.** With O=C([O-])CC(O)(CC(=O)[O-])C(=O)[O-].[Na+].[Na+].[Na+] [Sodium Citrate, sodium citrate] as the molecule, how does the pH (930 mg in 200 ml, 10 min) read?
**A.** Its pH is 5.53.

**Q.** What about the pH (930 mg in 200 ml, 20 min) of the same molecule?
**A.** Its pH is 5.53.

**Q.** And the pH (930 mg in 200 ml, 30 min)?
**A.** Its pH is 5.53.

**Q.** What about the pH (930 mg in 200 ml, 40 min) of the same molecule?
**A.** Its pH is 5.53.

**Q.** And the pH (930 mg in 200 ml, 50 min)?
**A.** Its pH is 5.53.

**Q.** And the pH (930 mg in 200 ml, 60 min)?
**A.** Its pH is 5.53.
